Assay results as given in PubChem BioAssay AID2060483 (Molecular Pharmacology Branch, DTP, NCI, 2025).
“And” between values parts separate entries of the source, which are not always exact repeats. Identical values can stand only once.

Tested on: K24384-001-R-PDC complex spheroids, viability
Assay: Anticancer human tumor K24384-001-R-PDC patient-derived pancreatic adenocarcinoma cell line growth inhibition [GQUAD]
Settings: for viability, T/C: stronger effect = lower value; active = viability on the fitted dose curve at most 10% of control; inactive = the rest
Source text: DNA G-quadruplex Stabilizer Agents in Combinations in Complex Spheroids
A high-throughput screen of multi-cell type tumor spheroids was designed to identify active combinations of DNA G-quadruplex stabilizer agents and targeted small molecules. Complex spheroids include a stromal component modeled by human endothelial cells (HUVEC) and fibroblasts modeled by human mesenchymal stem cells (MSCs). The concentration ranges selected for each drug and investigational agent were based upon clinically achievable concentrations if the clinical Cmax of the agent was known.
Compounds. The drugs and investigational agents: pidnarulex (CX-5461; NSC782164), APTO-253 (NSC789042), BRACO-19 (NSC847499), peposertib (NSC802822), ceralasertib (NSC780249), elimusertib (NSC800525), camonsertib (NSC841442), AZD-1390 (NSC803789), olaparib (NSC753686), talazoparib (NSC767125), ART-558 (NSC835418), sotorasib (NSC818433), MRTX-1133 (NSC836407), SN-38 (NSC673596), topotecan (NSC609699), etoposide (NSC141540), doxorubicin (NSC123127), gemcitabine (NSC613327), 5-fluorouracil (NSC19893), paclitaxel (NSC125973), vemurafenib (NSC761431), panobinostat (NSC761190), R-306465 (JNJ-16241199; NSC773264), adavosertib (NSC754352), TP-3654 (NSC805149), carboplatin (NSC241240), KSQ-4279 (NSC840948), and staurosporine (NSC755774) were obtained from the National Cancer Institute (NCI) Developmental Therapeutics Program Chemical Repository (34). The FDA-approved anticancer drug set is available from the NCI Developmental Therapeutics Program. […] The stock solutions were prepared in dimethyl sulfoxide (DMSO, Sigma-Aldrich, St. Louis, MO, cat. D2650) at 800-fold the tested concentration and stored at -70 degrees C prior to their use. All drugs and investigational agents were tested over a range starting from a high concentration at or near the clinical Cmax and decreasing in half-log increments. If the clinical Cmax for an agent had not been determined, the highest concentration tested was 10 microM.
2.3 Cell Culture. All cells were maintained in an incubator at 37 degrees C and 5% CO2 with 95% humidity. The PDC lines were cultured according to standard operating procedures established by the NCI PDMR. All PDCs were thawed and cultured in Matrigel-coated flasks prepared with a working solution of 1X Ham's F-12 nutrient mix, without supplementation (Invitrogen, cat. 11765054), 100 U/mL penicillin-streptomycin (Invitrogen, cat. 15140122), and 2.5% Matrigel (Corning Inc., cat. 354248) for the first three passages. The 857933-349-R-J2-PDC line was cultured in 6C/Colon 1B media, which includes advanced DMEM/F-12 (Thermo Fisher Scientific, cat. 12634028), 10 mM HEPES (Thermo Fisher Scientific, cat. 15630080), 1X GlutaMAX supplement (Thermo Fisher Scientific, cat. 35050061), 0.1 mg/mL primocin (InvivoGen, cat. ant-pm-2), 10% defined fetal bovine serum, heat inactivated (HyClone Laboratories Inc., cat. SH30070.03HI), 50% L-WRN conditioned media (ATCC, cat. CRL-3276), 1.25 mM N-Acetyl-L-cysteine (Sigma-Aldrich, cat. A9165), 10 mM nicotinamide (Sigma-Aldrich, cat. N0636), 1X B-27 supplement (Thermo Fisher Scientific, cat. 17504044), 1X N-2 supplement (Thermo Fisher Scientific, cat. 17502048), 10 microM Y-27632 dihydrochloride (Tocris Bioscience, cat. 1254), and 50 ng/mL human EGF recombinant protein (Thermo Fisher Scientific, cat. PHG0311). The 485176-168-R4-J1-PDC line was cultured in Panc media, which includes all 6C/Colon 1B media components plus 100 ng/mL human FGF-10 (Thermo Fisher Scientific, cat. 100-26), 500 nM SB-431542 (Selleckchem, cat. S1067), and gastrin (Tocris, cat. 3006).
[…]
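Also: spheroids exposed to compounds for seven days.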

COc1ncnc(C2CC2)c1-c1ncc2cnn(Cc3ccc(-c4nc(C(F)(F)F)cn4C(C)C)cc3)c2n1 + CN(C)c1ccc(Nc2c3ccc(NC(=O)CCN4CCCC4)cc3nc3cc(NC(=O)CCN4CCCC4)ccc23)cc1
> 10 µM: IC50 (curve of first compound, second compound 0.0316 µM) | IC50 (curve of first compound, second compound 0.1 µM) | IC50 (curve of first compound, second compound 0.316 µM) | IC50 (curve of first compound, second compound 1 µM) | IC50 (curve of first compound, second compound 3.16 µM)
6.95 µM: IC50 (curve of first compound, second compound 10 µM)
inactive: viability, T/C (second compound 0.0316 µM, first compound 0.0316 µM) 85% | viability, T/C (second compound 0.0316 µM, first compound 0.1 µM) 107% | viability, T/C (second compound 0.0316 µM, first compound 0.316 µM) 107% | viability, T/C (second compound 0.0316 µM, first compound 1 µM) 96.9% | viability, T/C (second compound 0.0316 µM, first compound 3.16 µM) 83.6% | viability, T/C (second compound 0.0316 µM, first compound 10 µM) 104% | viability, T/C (second compound 0.1 µM, first compound 0.0316 µM) 73.9% | viability, T/C (second compound 0.1 µM, first compound 0.1 µM) 86.3% | viability, T/C (second compound 0.1 µM, first compound 0.316 µM) 100% | viability, T/C (second compound 0.1 µM, first compound 1 µM) 86.1% | viability, T/C (second compound 0.1 µM, first compound 3.16 µM) 96.7% | viability, T/C (second compound 0.1 µM, first compound 10 µM) 110% | viability, T/C (second compound 0.316 µM, first compound 0.0316 µM) 79.9% | viability, T/C (second compound 0.316 µM, first compound 0.1 µM) 90.7% | viability, T/C (second compound 0.316 µM, first compound 0.316 µM) 77% | viability, T/C (second compound 0.316 µM, first compound 1 µM) 102% | viability, T/C (second compound 0.316 µM, first compound 3.16 µM) 97.2% | viability, T/C (second compound 0.316 µM, first compound 10 µM) 93.5% | viability, T/C (second compound 1 µM, first compound 0.0316 µM) 88.1% | viability, T/C (second compound 1 µM, first compound 0.1 µM) 84.2% | viability, T/C (second compound 1 µM, first compound 0.316 µM) 88.6% | viability, T/C (second compound 1 µM, first compound 1 µM) 95.6% | viability, T/C (second compound 1 µM, first compound 3.16 µM) 73.7% | viability, T/C (second compound 1 µM, first compound 10 µM) 88.6% | viability, T/C (second compound 3.16 µM, first compound 0.0316 µM) 85.1% | viability, T/C (second compound 3.16 µM, first compound 0.1 µM) 112% | viability, T/C (second compound 3.16 µM, first compound 0.316 µM) 85.6% | viability, T/C (second compound 3.16 µM, first compound 1 µM) 79.1% | viability, T/C (second compound 3.16 µM, first compound 3.16 µM) 86.9% | viability, T/C (second compound 3.16 µM, first compound 10 µM) 91.8% | viability, T/C (second compound 10 µM, first compound 0.0316 µM) 65.7% | viability, T/C (second compound 10 µM, first compound 0.1 µM) 99.2% | viability, T/C (second compound 10 µM, first compound 0.316 µM) 79.2% | viability, T/C (second compound 10 µM, first compound 1 µM) 88% | viability, T/C (second compound 10 µM, first compound 3.16 µM) 70.4% | viability, T/C (second compound 10 µM, first compound 10 µM) 40.6%

COc1cccc2c1C(=O)c1c(O)c3c(c(O)c1C2=O)CC(O)(C(=O)CO)CC3OC1CC(N)C(O)C(C)O1 (centres undefined)
0.201 µM and 0.144 µM and 0.161 µM: IC50 (curve of compound)
inactive: viability, T/C (compound 0.0316 µM) 96.8% and 80.5% and 92.1% | viability, T/C (compound 0.1 µM) 67.9% and 52.2% and 54.5% | viability, T/C (compound 0.316 µM) 38.1% and 41.2% and 43.5% | viability, T/C (compound 1 µM) 19.5% and 22.3% and 19.1%
7.67% and 6.06% and 6.27%: viability, T/C (compound 3.16 µM)
active: viability, T/C (compound 10 µM) 4.91% and 3.92% and 4.93%
